Patent publication US10945771B2, “Azabicyclo[4.1.0]heptane allosteric modulators of the M4 muscarinic acetylcholine receptor” (Merck Sharp & Dohme Corp., priority 2017, dated 2021)

target: T1, human M4 muscarinic acetylcholine receptor (Homo sapiens, UniProt P08173); experiment: human FLIPR-based M4 PAM assay (Ca2+ dye fluorescence, CHO-K1 cells with human M4 receptor and Gαqi5); type: cell-based; settings: inflection point (IP) of dose response curve, FLIPR Tetra, acetylcholine at 20% of maximum response
T1 construct: expressed in transfected cells; host or cells: CHO-K1
T1 sequence (P08173 1-479): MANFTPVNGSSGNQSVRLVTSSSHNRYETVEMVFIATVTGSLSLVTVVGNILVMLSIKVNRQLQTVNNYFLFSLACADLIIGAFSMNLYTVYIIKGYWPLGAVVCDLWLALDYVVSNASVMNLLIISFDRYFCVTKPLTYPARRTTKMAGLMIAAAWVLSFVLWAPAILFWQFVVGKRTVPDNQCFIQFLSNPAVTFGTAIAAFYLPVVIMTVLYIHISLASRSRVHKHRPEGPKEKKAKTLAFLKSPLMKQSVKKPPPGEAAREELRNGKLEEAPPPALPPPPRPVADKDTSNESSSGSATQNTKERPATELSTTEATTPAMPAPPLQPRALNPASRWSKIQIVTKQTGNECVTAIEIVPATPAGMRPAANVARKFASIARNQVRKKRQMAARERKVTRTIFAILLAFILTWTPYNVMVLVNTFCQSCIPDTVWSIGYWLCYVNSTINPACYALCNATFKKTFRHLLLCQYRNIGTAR
Method: In a typical experiment the M4 muscarinic acetylcholine receptor modulating activity of the compounds of the present invention was determined in accordance with the following experimental method. CHO-K1 cells stably transfected with human M4 receptor and chimeric G-protein Gαqi5 (Coward P, et al., Analytical Biochemistry, 270:242-248 (1999)) are thawed from liquid N2 storage, resuspended in growth medium, plated in black, clear bottom 384 well plates, and incubated 16-20 hours at 37° C., 5% CO2. On the day of assay, growth medium is removed, the cells are washed 2 times with wash buffer, and cells are incubated in dye loading buffer at 37° C., 5% CO2 for ˜1 hour. Following dye loading the cell plates are placed in a FLIPR Tetra instrument and while monitoring dye fluorescence (excitation […]), 10 uL of test substance at increasing concentrations is added, and fluorescence values are recorded for 4 min. Next, 10 uL of acetylcholine is added (final concentration calculated so as to achieve 20% of the maximum acetycholine response), and the fluorescence reading is continued for 3.5 min. In some cases, a third addition of acetylcholine (final concentration calculated to achieve 70% of the maximal acetylcholine response) is performed. The resulting dose response curves are fit to a 4 parameter logistic equation and the final result is determined as the inflection point (IP) of the curve
CHO-K1 cells stably transfected with human M4 receptor and chimeric G-protein Gαqi5 are thawed from liquid N2 storage, resuspended in growth medium, plated in black, clear bottom 384 well plates, and incubated 16-20 hours at 37° C., 5% CO2.
On the day of assay, growth medium is removed, the cells are washed 2 times with wash buffer, and cells are incubated in dye loading buffer at 37° C., 5% CO2 for ˜1 h. Following dye loading the cell plates are placed in a FLIPR Tetra instrument and while monitoring dye fluorescence ([…]), 10 uL of test substance at increasing concentrations is added, and fluorescence values are recorded for 4 min. Next, 10 uL of acetylcholine is added (final concentration calculated so as to achieve 20% of the maximum acetycholine response), and the fluorescence reading is continued for 3.5 min. In some cases, a third addition of acetylcholine (final concentration calculated to achieve 70% of the maximal acetylcholine response) is performed.

`Cc1c(N2CCC(OCC3(C)CC3)C3CC32)nc2c(c1C)C(=O)N1CCC(C)(O)CC21` (stereo not shown) [Example 25, 9-hydroxy-3,4,9-trimethyl-2-(5-((1-methylcyclopropyl)methoxy)-2-azabicyclo[4.1.0]heptan-2-yl)-8,9,10,10a-tetrahydropyrido[2,3-a]indolizin-5(7H)-one] and `Cc1c(N2CCC(OCC3(C)CC3)C3CC32)nc2c(c1C)C(=O)N1CCOCC21` (stereo not shown) [Example 26, 3,4-dimethyl-2-(5-((1-methylcyclopropyl)methoxy)-2-azabicyclo[4.1.0]heptan-2-yl)-7,8,10,10a-tetrahydro-5H-pyrido[2′,3′:3,4]pyrrolo[2,1-c][1,4]oxazin-5-one] are within 1.5-fold of each other in EC50: 195 nM for the first, 153 nM for the second.

Going from `Cc1c(N2CCC(Oc3ccc4c(c3)COC4)C3CC32)nc2c(c1C)C(=O)NC2` (stereo not shown) [Example 27, 2-(5-((1,3-dihydroisobenzofuran-5-yl)oxy)-2-azabicyclo[4.1.0]heptan-2-yl)-3,4-dimethyl-6,7-dihydro-5H-pyrrolo[3,4-b]pyridin-5-one] to `Cc1c(N2CCC(Oc3ccc4c(c3)COCC4)C3CC32)nc2c(c1C)C(=O)NC2` (stereo not shown) [Example 35, 2-(5-(isochroman-7-yloxy)-2-azabicyclo[4.1.0]heptan-2-yl)-3,4-dimethyl-6,7-dihydro-5H-pyrrolo[3,4-b]pyridin-5-one], the EC50 rises from 166 nM to 281 nM (1.7-fold). The first is the more potent here.

`Cc1cc2c(nc1N1CCC(Oc3ccc4c(c3)COC4)C3CC31)CNC2=O` (stereo not shown) [Example 28, 2-(5-((1,3-dihydroisobenzofuran-5-yl)oxy)-2-azabicyclo[4.1.0]heptan-2-yl)-3-methyl-6,7-dihydro-5H-pyrrolo[3,4-b]pyridin-5-one] and `Cc1cc2c(nc1N1CCC(Oc3ccc4c(c3)CCOC4)C3CC31)CNC2=O` (stereo not shown) [Example 31, 2-(5-(isochroman-6-yloxy)-2-azabicyclo[4.1.0]heptan-2-yl)-3-methyl-6,7-dihydro-5H-pyrrolo[3,4-b]pyridin-5-one] are within 1.5-fold of each other in EC50: 76 nM for the first, 72 nM for the second.

Going from `Cc1cc2c(nc1N1CCC(Oc3ccc4c(c3)COC4)C3CC31)CNC2=O` (stereo not shown) [Example 29, 2-(5-((1,3-dihydroisobenzofuran-5-yl)oxy)-2-azabicyclo[4.1.0]heptan-2-yl)-3-methyl-6,7-dihydro-5H-pyrrolo[3,4-b]pyridin-5-one] to `Cc1cc2c(nc1N1CCC(Oc3ccc4c(c3)COCC4)C3CC31)CNC2=O` (stereo not shown) [Example 36, 2-(5-(isochroman-7-yloxy)-2-azabicyclo[4.1.0]heptan-2-yl)-3-methyl-6,7-dihydro-5H-pyrrolo[3,4-b]pyridin-5-one], the EC50 rises from 43 nM to 156 nM (3.6-fold).

First: Cc1cc2c(nc1N1CCC(Oc3ccc4c(c3)COC4)C3CC31)CNC2=O (stereo not shown) [Example 30, 2-(5-((1,3-dihydroisobenzofuran-5-yl)oxy)-2-azabicyclo[4.1.0]heptan-2-yl)-3-methyl-6,7-dihydro-5H-pyrrolo[3,4-b]pyridin-5-one]
Second: Cc1c(N2CCC(Oc3ccc4c(c3)COC4)C3CC32)nc2c(c1C)C(=O)N(C)C2 (stereo not shown) [Example 37, 2-(5-((1,3-dihydroisobenzofuran-5-yl)oxy)-2-azabicyclo[4.1.0]heptan-2-yl)-3,4,6-trimethyl-6,7-dihydro-5H-pyrrolo[3,4-b]pyridin-5-one]
The EC50 of the first is 5.1-fold higher: 727 nM for the first, 143 nM for the second.
